Common to all, as to experiment: NCI tumour cell line growth inhibition, 48 h
Assay [1] concerns SF-268.
In assay [2] the test system is NCI-H460.
The test system of assay [3] is MDA-MB-231.
In assay [4] the test system is NCI-H522.
Assay [5] has as its system MDA-N.
The test system of assay [6] is RPMI-8226.
Assay [7] deals with HCT-15.
The subject of assay [8] is SK-MEL-5.
Assay [9] concerns SN12C.
The test system of assay [10] is UACC-257.
The subject of assay [11] is HCT-116.
The test system of assay [12] is IGROV-1.
Assay [13] concerns OVCAR-5.
Assay [14] relates to ACHN.
For assay [15], the system named is CAKI-1.
The test system of assay [16] is UACC-62.
In assay [17] the test system is TK-10.
The subject of assay [18] is Hs-578T.
Assay [19] concerns MOLT-4.
Assay [20] has as its system HL-60.

The values that follow come from ChEMBL document CHEMBL1201862, “PubChem BioAssay data set” (2004).

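Cultured in 96-well plates, cells were exposed to test compound for 48 hours across five concentrations. GI50: concentration for 50% inhibition of growth.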 The source made the active and inactive calls. Rule as the data show it: active = GI50 up to about 1.1 µM and inactive = higher. Bounds are passed on as bounds.

Regarding `C(=N\CCCN1CCN(CCC/N=C/c2cccc3ccccc23)CC1)/c1cccc2ccccc12`, the GI50 in assay [1] was > 100 µM (inactive); in [2], > 100 µM (inactive); in assay [3], > 100 µM (inactive); in [4] it was > 100 µM (inactive); in [5] it was 20 µM (inactive); in assay [6], 36 µM (inactive). The GI50 in assay [7] was 34.8 µM; in assay [8] it was > 10 µM (inactive); in assay [9], > 100 µM (inactive); in [10], > 100 µM (inactive); in assay [11], 27.7 µM (inactive); in assay [12], > 100 µM (inactive). In addition, the GI50 in [13] is > 100 µM (inactive); in [14], > 100 µM (inactive); in assay [15], > 100 µM (inactive); in assay [16], 84.7 µM (inactive); in assay [17], 72.1 µM (inactive); in assay [18] it was 18.8 µM (inactive). The GI50 in assay [19] was 39.4 µM (inactive).
Regarding `C#CC(O)/C=C/CCCCCCC#CC/C=C\CC#CCCCCCCCCC(O)C#C` (stereo unspecified), the GI50 in assay [1] was 9.59 µM (inactive); in [2] it was 17.1 µM (inactive); in [3] it was 3.32 µM (inactive); in assay [20], 1.74 µM (inactive); in assay [4] it was 0.174 µM (active); in [5] it was 1.99 µM (inactive). Moreover, the GI50 in [7] is 3.27 µM; in assay [8], 2.68 µM (inactive); in assay [9], 1.99 µM (inactive); in assay [10], 3.35 µM (inactive); in assay [11], 2.28 µM (inactive); in assay [12], 0.407 µM (active). Besides, the GI50 in assay [13] was 12.8 µM (inactive); in assay [14] it was 12.2 µM (inactive); in assay [15] it was 4.29 µM (inactive); in assay [16] it was 9.08 µM (inactive); in assay [17], 13.1 µM (inactive); in [18], 20.6 µM (inactive). Further, in [19], the GI50 is 0.27 µM (active).
With `O=c1c(-c2ccccc2)c(SCCN2CCCC2)n(-c2ccccc2)c(=S)n1-c1ccccc1`, the GI50 in assay [1], in [2], in assay [3], in assay [20], in assay [4] and in assay [5] was > 100 µM (inactive) each time. The GI50 in [6] was > 100 µM (inactive); in [7] it was more than 100 µM; in [9], > 100 µM (inactive); in assay [10] it was > 100 µM (inactive); in assay [11], > 100 µM (inactive); in assay [12], > 100 µM (inactive). The GI50 in [13], in assay [14], in assay [15], in assay [16], in assay [17] and in assay [18] was > 100 µM (inactive) each time. Further, the GI50 in [19] was > 100 µM (inactive).
In the case of `Cc1nc(O)c2ncn(CCO)c2n1`, the GI50 in assay [1], in assay [2], in assay [3], in assay [20], in assay [4] and in [5] was > 100 µM (inactive) in each case. The GI50 in assay [7] is more than 100 µM; in [8] it was > 100 µM (inactive); in assay [9] it was > 100 µM (inactive); in [10] it was > 100 µM (inactive); in [11], > 100 µM (inactive); in [12], > 100 µM (inactive). Also, the GI50 in assay [13], in assay [14], in assay [15], in assay [16], in assay [17] and in [18] was > 100 µM (inactive) throughout.
For the compound `CC(C)(C)OC(=O)CC(NC(=O)OC(C)(C)C)C(=O)Oc1ccc([N+](=O)[O-])cc1` (stereo unspecified), the GI50 is 3.2 µM (inactive) in [1]; > 100 µM (inactive) in [2]; > 100 µM (inactive) in [3]; > 100 µM (inactive) in assay [4]; > 100 µM (inactive) in assay [5]; > 100 µM (inactive) in assay [6]. The GI50 is more than 100 µM in assay [7]; 78.7 µM (inactive) in [8]; > 100 µM (inactive) in assay [9]; > 100 µM (inactive) in assay [10]; > 100 µM (inactive) in assay [11]; > 100 µM (inactive) in assay [12]. Further, the GI50 in assay [13] is > 100 µM (inactive); in assay [14] it was > 100 µM (inactive); in [15], > 100 µM (inactive); in [16], 11.1 µM (inactive); in assay [17] it was > 100 µM (inactive); in assay [18], > 100 µM (inactive). Besides, in assay [19], the GI50 is > 100 µM (inactive).
Regarding `c1ccc(C2=C(c3ccccc3)P(c3ccccc3)C2)cc1` (stereo unspecified), the GI50 was > 100 µM (inactive) in assay [1]; 92.3 µM (inactive) in assay [2]; > 100 µM (inactive) in assay [3]; 47.6 µM (inactive) in assay [4]; > 100 µM (inactive) in [5]; more than 100 µM in assay [7]. Further, the GI50 is > 100 µM (inactive) in [9]; > 100 µM (inactive) in assay [10]; 83.4 µM (inactive) in assay [11]; 64.3 µM (inactive) in assay [12]; > 100 µM (inactive) in [13]; > 100 µM (inactive) in assay [14]. Moreover, the GI50 in assay [15] is > 100 µM (inactive); in [17], > 100 µM (inactive); in [18], 40.5 µM (inactive); in [19], 22.1 µM (inactive).
Regarding `CO/C(N)=C(C#N)/N=C/c1ccsc1`, the GI50 in assay [1] was 44.7 µM (inactive); in assay [2], > 100 µM (inactive); in assay [3], 32.7 µM (inactive); in assay [20], 13.1 µM (inactive); in [4], 23.9 µM (inactive); in [5], 28.5 µM (inactive). For the same compound, the GI50 is 34.3 µM in [7]; 28.2 µM (inactive) in [8]; > 100 µM (inactive) in assay [9]; 41.9 µM (inactive) in assay [10]; 40 µM (inactive) in assay [11]; 52.6 µM (inactive) in assay [12]. For the same compound, the GI50 in assay [13] was > 100 µM (inactive); in [14], > 100 µM (inactive); in assay [15], 37.2 µM (inactive); in [16], 33.4 µM (inactive); in assay [17] it was > 100 µM (inactive); in [18] it was 52.2 µM (inactive). Moreover, in assay [19], the GI50 is 47.6 µM (inactive).
Consider `Cn1cc(NC(=O)Nc2cc(C(=O)Nc3cc(C(=O)Nc4ccc(S(=O)(=O)O)c5cc(S(=O)(=O)O)ccc45)n(C)c3)n(C)c2)cc1C(=O)Nc1cc(C(=O)Nc2ccc(S(=O)(=O)O)c3cc(S(=O)(=O)O)ccc23)n(C)c1`, for which the GI50 in [1], in [2], in assay [3], in assay [20], in assay [4] and in assay [5] was > 100 µM (inactive) in each case. Besides, the GI50 was > 100 µM (inactive) in [6]; more than 100 µM in assay [7]; > 100 µM (inactive) in assay [8]; > 100 µM (inactive) in [9]; > 100 µM (inactive) in assay [10]; > 100 µM (inactive) in [11]. Moreover, the GI50 in [12] is > 100 µM (inactive); in assay [13], > 100 µM (inactive); in assay [14] it was > 100 µM (inactive); in assay [16], > 100 µM (inactive); in assay [17], 83.8 µM (inactive); in [18] it was > 100 µM (inactive). The GI50 in assay [19] was > 100 µM (inactive).
As to `CN(Cc1cnc2nc(N)nc(N)c2n1)c1ccc(C(=O)NCS(=O)(=O)O)cc1`, the GI50 was 33.3 µM (inactive) in [1]; 92.7 µM (inactive) in [2]; > 100 µM (inactive) in [3]; > 100 µM (inactive) in assay [4]; 63.1 µM (inactive) in [5]; > 100 µM (inactive) in assay [6]. In addition, the GI50 is more than 100 µM in assay [7]; > 100 µM (inactive) in assay [8]; > 100 µM (inactive) in assay [9]; > 100 µM (inactive) in assay [10]; 43.3 µM (inactive) in [11]; > 100 µM (inactive) in assay [12]. Besides, the GI50 is > 100 µM (inactive) in assay [13]; 64.9 µM (inactive) in [14]; > 100 µM (inactive) in [16]; > 100 µM (inactive) in [17]; > 100 µM (inactive) in [18]; 68.2 µM (inactive) in assay [19].
Take `Cc1onc(-c2c(F)cccc2Cl)c1C(=O)N[C@@H]1C(=O)N2[C@@H]1SC(C)(C)[C@@H]2C(=O)O`: the GI50 in assay [1], in [2], in assay [3], in assay [4], in [5] and in [6] was > 100 µM (inactive) each time. Further, the GI50 is more than 100 µM in [7]; > 100 µM (inactive) in assay [8]; > 100 µM (inactive) in assay [9]; > 100 µM (inactive) in [10]; > 100 µM (inactive) in assay [11]; > 100 µM (inactive) in assay [12]. The GI50 in assay [13] is > 100 µM (inactive); in assay [14], > 100 µM (inactive); in [15] it was > 100 µM (inactive); in assay [16] it was > 100 µM (inactive); in assay [17], > 100 µM (inactive); in assay [18], 44 µM (inactive).
On to `CN1CC2CC(C1)c1cccc(=O)n1C2` (stereo unspecified), for which the GI50 in assay [1] was > 100 µM (inactive); in [2], > 100 µM (inactive); in [3], > 100 µM (inactive); in [4] it was > 100 µM (inactive); in assay [5], > 100 µM (inactive); in [7], more than 100 µM. The GI50 in assay [8], in assay [9], in assay [10], in [11], in [12] and in [13] was > 100 µM (inactive) each time. In addition, the GI50 in assay [14], in assay [15], in [16], in [17] and in [18] was > 100 µM (inactive) in each case.
